From US9073820B2, “Pharmaceutical compositions comprising napthamides” (OREGON HEALTH & SCIENCE UNIVERSITY, priority 2011, dated 2015) come the findings set out here.

Test [1] concerns MDA-MB-231 (human breast cancer cells). Put plainly: MTT cell growth inhibition, 72 h, MDA-MB-231. The following applies: MDA-MB-231, 72 h, read-out: MDA-MB-231 (GI50). The class given is cell-based. As to the method: (§1) A549 (human lung cancer cells), MCF-7 (human breast cancer cells), MDA-MB-231 (human breast cancer cells) and MDA-MB-468 cells (human breast cancer cells) were maintained in Dulbecco's modified Eagle medium (DMEM, Invitrogen, Carlsbad, Calif.) supplemented with 10% (v/v) fetal calf serum (Sigma, St. Louis, Mo.), 10 μg/mL penicillin and 10 μg/mL streptomycin (Invitrogen, Carlsbad, Calif.) at 37° C. under 5% CO2. On the day of experiment, different concentrations of the drugs (final concentration 10^−8-10^−4 M) in duplicates were added to the cells and the cells were further incubated for 72 h. Then, the number of live cells was quantified by 3-(4,5-dimethyl-2-thiazolyl)-2,5-diphenyl-2H-tetrazolium bromide (MTT reagent, Sigma, St. Louis, Mo.).
(§2) The amount of reduced MTT formazan generated by live cells was determined by its absorbance at 570 nm after subtracting the background absorbance at 690 nm. The percent of cell growth was expressed as (A570(treated)−A570(initial))/(A570(vehicle treated)−A570(initial))*100, where A570(initial) represents initial cell population when drugs are added. The GI50 were derived from non-linear regression analysis of the dose-response curve using Prism 4.0 (GraphPad). […] Data were presented as mean±SD of at least two measurements in duplicates unless noted.

The test system of test [2] is MCF-7 (human breast cancer cells). Kind of test: MTT cell growth inhibition, 72 h, MCF-7. Format: cell-based. The following applies: MCF7, 72 h, read-out: MCF-7 (GI50). As to the method: as §1, §2
In test [3] the test system is A549 (human lung cancer cells). Put plainly: MTT cell growth inhibition, 72 h, A549. Format: cell-based. The following applies: A549, 72 h, read-out: A549 (GI50). As to the method: as §1, §2
The test system of test [4] is CREB-mediated gene transcription. Put plainly: CREB reporter (pCRE-RLuc) assay in HEK 293T cells, forskolin-stimulated. The settings on record: Homo sapiens, 5 h, read-out: CREB reporter inhibition (IC50). The class given is cell-based. As to the method:
HEK293T cells in a 10-cm plate were transfected with pCRE-RLuc (6.0 μg) using Lipofectamine™ 2000 (Invitrogen, Carlsbad, Calif.) according to manufacturer's protocol. After 3 h, the transfected cells were collected and replated into 96-well plates (1-2×10^4 cells/well). The cells were allowed to attach to the bottom of the wells for overnight, when compounds of different concentrations were added to the cells. Forskolin (final concentration of 10 μM, LC Laboratories, Woburn, Mass.) was added 30 min after the addition of the compounds. The cells were then incubated at 37° C. for 5 h. The media in the wells were removed and the cells were then lysed in 30 μL of 1×Renilla luciferase lysis buffer (Promega, Madison, Wis.). To measure Renilla luciferase activity, five μL of the lysate was combined with 30 μL of benzyl-coelenterazine (Nanolight, Pinetop, Ariz.) solution in PBS (pH 7.4, 10 μg/mL). The sample protein concentration was determined by Dye Reagent Concentrate (Bio-Rad, Hercules, Calif.). The Renilla luciferase activity was normalized to protein content in each well and expressed as relative luciferase unit/μg protein (RLU/μg protein). The IC50 was derived from non-linear regression analysis of the RLU/μg protein-concentration curve in Prism 5.0 (La Jolla, Calif.).

Test [5] has as its system MDA-MB-468 cells (human breast cancer cells). Put plainly: MTT cell growth inhibition, 72 h, MDA-MB-468. The class given is cell-based. The following applies: MDA-MB-468, 72 h, read-out: MDA-MB-468 (GI50). As to the method: as §1, §2
The next test concerns the target T1, KIX-KID (Homo sapiens, UniProt Q92793).
T1 construct: made in house
Kind of test: KIX-KID inhibition, split Renilla luciferase complementation (RLucC-KIX and KID-RLucN). The class given is binding. The settings on record: 4° C., 24 h. As to the method:
RLucC-KIX (15 ng) and KID-RLucN-containing cell lysates (0.5 mg) were mixed together in Renilla luciferase lysis buffer (Promega, Madison, Wis.) in the presence of different concentrations of compounds. The final volume of the incubation mixture is 30 μL. The mixture was incubated at 4° C. for 24 h. Then Renilla luciferase activity was measured by combining 5 μL of incubation mixture with 30 μL of coelenterazine solution in PBS (pH 7.4, 10 μg/mL).

Where two headings read alike, the source gives them in different places.

T1 sequence (Q92793 587-666 limits assumed): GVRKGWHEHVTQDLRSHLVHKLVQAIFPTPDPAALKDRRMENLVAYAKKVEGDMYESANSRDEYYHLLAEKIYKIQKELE

For orientation: GI50 means the concentration at which growth is held to half of that of the control. Usually IC50 stands for the point on the concentration scale where inhibition reaches its midpoint. For `NCCCOc1nc2ccccc2cc1C(=O)NCCOc1cc2ccccc2cc1C(=O)Nc1ccc(Cl)cc1O` [Compound 7], the GI50 in test [1] was determined as 840 ± 180 nM; in test [2], 190 nM; in test [3], 640 nM; in test [5], 140 ± 24 nM. Further, the IC50 in test [4] (HEK-293T) was determined as 170 ± 66 nM.

As to `NCCCOc1cc2ccccc2cc1C(=O)Nc1ccc(Cl)cc1OC(=O)c1cc2ccccc2cc1OCCCN` [Compound 3, reference compound], the IC50 was determined as 8020 ± 360 nM at KIX-KID and 2270 ± 280 nM in test [4] (HEK 293T, forskolin 10 μM).

For `O=C(Nc1ccc(Cl)cc1)c1cc2ccccc2cc1O` [Compound 1, reference compound], the GI50 is 2350 ± 600 nM in test [1] (MTT, mean±SD) and 1460 ± 300 nM in test [5] (MTT, mean±SD). In addition, the IC50 against KIX-KID was 2900 ± 810 nM; in test [4] (HEK 293T, forskolin 10 μM) it was 2290 ± 310 nM.

`NCCCOc1nc2ccccc2cc1C(=O)NCCOc1nc2ccccc2cc1C(=O)Nc1ccc(Cl)cc1O` [Compound 8]: the GI50 in test [1] came to 540 ± 130 nM; in test [5], 290 ± 55 nM. Further, the IC50 in test [4] (HEK-293T) was 4030 ± 200 nM.

Regarding `NCCCOc1nc2ccccc2cc1C(=O)NCCOc1nc2ccccc2cc1C(=O)Nc1ccc(Cl)cc1F` [Compound 9], the GI50 in test [1] came out at 370 ± 250 nM. For the same compound, the half-inhibitory concentration (IC50) in test [4] (HEK-293T) worked out at 440 ± 340 nM.

Take `COc1cc2ccccc2cc1C(=O)Nc1ccccc1OC(=O)c1cc2ccccc2cc1OC` [Compound 2, reference compound]: the GI50 in test [1] (MTT, mean±SD) was 23500 ± 2270 nM; in test [2] (MTT, mean±SD) it was 3380 ± 490 nM; in test [3] (MTT, mean±SD), 8780 ± 2550 nM; in test [5] (MTT, mean±SD), 8130 ± 5470 nM. For the same compound, the IC50 against KIX-KID was 170 ± 120 nM; in test [4] (HEK 293T, forskolin 10 μM), 1950 ± 1140 nM.

In the case of `NCCCOc1cc2ccccc2cc1C(=O)NCCOc1nc2ccccc2cc1C(=O)Nc1ccc(Cl)cc1O` [Compound 6], the figures for the GI50 in test [1] and in test [5] were 190 ± 120 nM and 13 ± 2 nM, respectively. Also, the IC50 in test [4] (HEK-293T) stood at 72 ± 9 nM.
